Tests used:
IL-12p40 = assay: Cytokine release inhibition assay: LPS-induced cytokine release from human PBMCs; assay type: cell-based; conditions: PBMC, LPS 1 ng/mL, 18 h, read-out: LPS IC50 IL12p40 μM
Experimental: Cytokine release inhibition assay: LPS-induced cytokine release from human peripheral blood mononuclear cells (PBMCs)
200,000 PBMCs were seeded per well of a 96-well plate in 160 μL of medium. Afterwards, 20 μL of ten times concentrated working dilutions of compound or DMSO control were added per well. Cells were pre-incubated with compounds for 1 h at 37° C., 5% CO2, 95% humidity and 20 μL of ten times concentrated LPS was added to cells (Sigma L4391, final concentration 1 ng/mL). Following 18 h incubation at 37° C., 5% CO2, 95% humidity, plates were centrifuged for 10 minutes at 300×g. 150 μL of supernatants were collected for IL-12p40 determination. The concentration of IL-12p40 in supernatants was determined by sandwich ELISA (enzyme-linked immunosorbent assay) using capture and detection antibodies according to the manufacturer's instructions (R&D Systems DY1240). Data can be analyzed using GraphPad Prism, and IC50 data can be obtained using non-linear regression curve fit using log(compound) vs response (variable slope).

[1] = molecular target: T1, BRD4(1), first bromodomain of BRD4 (Homo sapiens, UniProt O60885); assay: Bromoscan assay BRD4(1) (DiscoveRx); assay type: binding; conditions: for Kd: first bromodomain of BRD4, read-out: BromoScan BRD4_1 Kd/nM; for BromoScan BRD4_2/1: ratio of Kd BRD4_2 to BRD4_1, selectivity for BRD4_1 over BRD4_2
T1 construct: BRD4(1) for the first bromodomain of BRD4; purchased DiscoveRx Corporation (assay service); host or cells: T7 phage grown in an E. coli host derived from the BL21 strain
Experimental: (§1) Bromoscan assays were run by DiscoveRx Corporation. The relevant assay names are BRD4(1) for the first bromodomain of BRD4 and BRD4(2) for the second bromodomain of BRD4. Further Bromoscan assays covering other bromodomains could be employed to establish the selectivity profile of a compound of interest. To run the Bromoscan assay, a T7 phage strain displaying the relevant bromodomain was grown in parallel in 24-well blocks in an E. coli host derived from the BL21 strain. E. coli were grown to log-phase and infected with T7 phage from a frozen stock (multiplicity of infection=0.4) and incubated with shaking at 32° C. until lysis (90-150 minutes). The lysates were centrifuged (5,000×g) and filtered (0.2 μm) to remove cell debris. Streptavidin-coated magnetic beads were treated with biotinylated small molecule or acetylated peptide ligands for 30 minutes at room temperature to generate affinity resins for bromodomain assays. The liganded beads were blocked with excess biotin and washed with blocking buffer (SeaBlock (Pierce), 1% BSA (bovine serum albumin), 0.05% Tween 20, 1 mM DTT (dithiothreitol)) to remove unbound ligand and to reduce non-specific phage binding. Binding reactions were assembled by combining bromodomains, liganded affinity beads, and test compounds in 1× binding buffer (17% SeaBlock, 0.33×PBS, 0.04% Tween 20, 0.02% BSA, 0.004% Sodium azide, 7.4 mM DTT). Test compounds were prepared as 1000× stocks in 100% DMSO and subsequently diluted 1:10 in monoethylene glycol (MEG) to create stocks at 100× the screening concentration (resulting stock solution is 10% DMSO/90% MEG). The compounds were then diluted directly into the assays such that the final concentration of DMSO and MEG were 0.1% and 0.9%, respectively. All reactions were performed in polystyrene 96-well plates in a final volume of 0.135 ml. The assay plates were incubated at room temperature with shaking for 1 hour and the affinity beads were washed with wash buffer (1×PBS, 0.05% Tween 20). The beads were then re-suspended in elution buffer (lx PBS, 0.05% Tween 20, 2 μM nonbiotinylated affinity ligand) and incubated at room temperature with shaking for 30 minutes. The bromodomain concentration in the eluates was measured by qPCR (quantitative real-time polymerase chain reaction).

BRD4 protein = BRD4 protein (Homo sapiens, UniProt O60885); assay: FRET assay, half maximal inhibitory concentration (IC50); assay type: binding; conditions: BRD4 protein 50 nM, Biotin-H4KAc4 peptide 12.5 nM
How it was run: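 HTRF: 50 nM BRD4 preincubated 30 min at room temperature with compound (10-fold series from 50 μM in 12.5% DMSO) in 50 mM HEPES pH 7.5, 100 mM NaCl, 0.05% CHAPS. Then 12.5 nM biotin-H4KAc4 peptide for 30 min, and anti-GST XL665 (10 nM) plus streptavidin cryptate (2.4 nM) with 0.4 M KF for 1 h. IC50 by variable-slope fit.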

[2] = molecular target: T2, BRD4(2), second bromodomain of BRD4 (Homo sapiens, UniProt O60885); assay: Bromoscan assay BRD4(2) (DiscoveRx); assay type: binding; conditions: read-out: BromoScan BRD4_2 Kd/nM
T2 construct: BRD4(2) for the second bromodomain of BRD4; purchased DiscoveRx Corporation (assay service); host or cells: T7 phage grown in an E. coli host derived from the BL21 strain
Experimental: as §1

MV-4-11 tumor cells = assay: Cell viability assay (CellTiter-Glo); assay type: cell-based; conditions: Homo sapiens, MV4-11; MV-4-11 cells, 72 hours with compound
Experimental: Grow MV-4-11 tumor cells (ATCC CRL-9591) in suspension at 37° C. in a humidified atmosphere (5% CO2, 95% air, IMDM (Iscove's Modified Dulbecco's Medium) medium supplemented with 10% FBS (fetal bovine serum)) Seed cells at a density of 10.000 cells per well of a flat-bottomed 96 well plate in 50 μL of medium. After 24 hours, add 50 μL of test compound or DMSO control from a pre-generated compound dilution series in medium. After an additional 72 hours, add 100 μL of pre-mixed CellTiter-Glo reagent (Promega G7570) to each well, shake for two minutes to allow cell lysis followed by 10 minutes of incubation at room temperature without shaking. Read luminescence on an Envision reader (Perkin Elmer). The inhibition of cell viability (IC) can be expressed as follows:
[formula] IC data can be analyzed using GraphPad Prism, and IC50 data can be obtained using non-linear regression curve fit using log(compound) vs response (variable slope). The effect of compound on the viability of other cell lines can be assayed under similar conditions, taking into account the growth requirement of the individual cell line.

[3] = A Further List of Classification

Structure (SMILES) | IC50 (IL-12p40) [nM] | Kd [1] [nM] | BromoScan BRD4_2/1 [1] | IC50 (BRD4 protein; List of Classification) [nM] | Kd [2] [nM] | IC50 (MV-4-11 tumor cells) [nM] | IC50 (BRD4 protein; [3]) [nM]
Cc1cc(O)nc2ccc(NC(=O)c3cc(C(C)O)ncc3N3CCCC3)cc12 (stereo not drawn) [Compound-43] | 400 | 2.4 | 32.9 | < 200 | 79 |  | 
Cc1cc(O)nc2ccc(NC(=O)c3cc(S(=O)(=O)N4CCCCC4)ccc3N3CCOCC3)cc12 [Compound-67, N-(2-hydroxy-4-methyl-6-quinolyl)-2-morpholino-5-(1-piperidylsulfonyl)benzamide] |  | 6.2 | 190.9 | < 200 | 1180 | 1200 | 
Cc1cc2nc(O)cc(C)c2cc1NC(=O)c1cc(S(=O)(=O)N(C)C)ccc1N1CCOCC1 [Compound-99, 5-(dimethylsulfamoyl)-N-(2-hydroxy-4,7-dimethyl-6-quinolyl)-2-morpholino-benzamide] | 400 | 12 | 466.7 | < 200 | 5600 |  | 
Cc1cc(O)nc2c(C)cc(NC(=O)c3cc(S(=O)(=O)N(C)C)ccc3N3CCCC3)cc12 [Compound-107, 5-(dimethylsulfamoyl)-N-(2-hydroxy-4,8-dimethyl-6-quinolyl)-2-pyrrolidin-1-yl-benzamide] |  | 3.6 | 7.8 | < 200 | 28 | 700 | 
Cc1cc(O)nc2ccc(NC(=O)c3cc(C4(N5CCOCC5)CC4)ccc3N3CCCC3)cc12 [Compound-113, N-(4-methyl-2-oxo-1,2-dihydroquinolin-6-yl)-5-(1-morpholinocyclopropyl)-2-(pyrrolidin-1-yl)benzamide] |  | 16 | 11.9 | < 200 | 190 | 600 | 
Cc1cc(O)nc2ccc(NC(=O)c3cccnc3N3CCOCC3)cc12 [Compound-128, N-(2-hydroxy-4-methyl-6-quinolyl)-2-morpholino-pyridine-3-carboxamide] | 300 | 15 | 166.7 | < 200 | 2500 |  | 
Cc1cc(O)nc2ccc(NC(=O)c3cc(CN4CCOCC4)cnc3N3CC(CO)OCC3C)cc12 (stereo not drawn) [S115, 2-[2-(hydroxymethyl)-5-methyl-morpholin-4-yl]-N-(2-hydroxy-4-methyl-6-quinolyl)-5-(morpholinomethyl)pyridine-3-carboxamide] |  |  |  |  |  |  | > 10000
Cc1cc(O)nc2ccc(NC(=O)c3cc(CN4CCOCC4)cnc3N3CCOC(CN(C)C)C3)cc12 (stereo not drawn) [S117, 2-[2-(dimethylaminomethyl)morpholin-4-yl]-N-(2-hydroxy-4-methyl-6-quinolyl)-5-(morpholinomethyl)pyridine-3-carboxamide] |  |  |  |  |  |  | > 10000
Cc1cc(O)nc2ccc(NC(=O)c3cc(CN4CCOCC4)cnc3N3CCC(CO)C3)cc12 (stereo not drawn) [S118, 2-[3-(hydroxymethyl)pyrrolidin-1-yl]-N-(2-hydroxy-4-methyl-6-quinolyl)-5-(morpholinomethyl)pyridine-3-carboxamide] |  |  |  |  |  |  | > 10000
Cc1cc(O)nc2ccc(NC(=O)c3cc(CN4CCN(C)CC4)ccc3N3CCCC3)cc12 [compound 1, N-(2-hydroxy-4-methylquinolin-6-yl)-5-((4-methylpiperazin-1-yl)methyl)-2-(pyrrolidin-1-yl)benzamide] | 300 | 13 | 25.4 | < 200 | 330 | 600 | 
